Measured values reported in patent US10670605B2, “Cysteine reactive probes and uses thereof” (The Scripps Research Institute, priority 2015, dated 2020).
Values belong to the compound of their own block, whether it stands above or below them.

What was measured:
Assay in all cases: Competitive isoTOP-ABPP in situ (fragment-treated cells)
Assay type in all cases: cell-based
[1] = target: cysteines in MDA-MB-231 and Ramos cells (Homo sapiens, UniProt P04818); conditions: 200 μM, insitu, 231
[2] = target: T1, cysteines in MDA-MB-231 and Ramos cells (Homo sapiens, UniProt P55265); conditions: 200 μM, insitu, 231
T1 sequence (P55265 1-1226): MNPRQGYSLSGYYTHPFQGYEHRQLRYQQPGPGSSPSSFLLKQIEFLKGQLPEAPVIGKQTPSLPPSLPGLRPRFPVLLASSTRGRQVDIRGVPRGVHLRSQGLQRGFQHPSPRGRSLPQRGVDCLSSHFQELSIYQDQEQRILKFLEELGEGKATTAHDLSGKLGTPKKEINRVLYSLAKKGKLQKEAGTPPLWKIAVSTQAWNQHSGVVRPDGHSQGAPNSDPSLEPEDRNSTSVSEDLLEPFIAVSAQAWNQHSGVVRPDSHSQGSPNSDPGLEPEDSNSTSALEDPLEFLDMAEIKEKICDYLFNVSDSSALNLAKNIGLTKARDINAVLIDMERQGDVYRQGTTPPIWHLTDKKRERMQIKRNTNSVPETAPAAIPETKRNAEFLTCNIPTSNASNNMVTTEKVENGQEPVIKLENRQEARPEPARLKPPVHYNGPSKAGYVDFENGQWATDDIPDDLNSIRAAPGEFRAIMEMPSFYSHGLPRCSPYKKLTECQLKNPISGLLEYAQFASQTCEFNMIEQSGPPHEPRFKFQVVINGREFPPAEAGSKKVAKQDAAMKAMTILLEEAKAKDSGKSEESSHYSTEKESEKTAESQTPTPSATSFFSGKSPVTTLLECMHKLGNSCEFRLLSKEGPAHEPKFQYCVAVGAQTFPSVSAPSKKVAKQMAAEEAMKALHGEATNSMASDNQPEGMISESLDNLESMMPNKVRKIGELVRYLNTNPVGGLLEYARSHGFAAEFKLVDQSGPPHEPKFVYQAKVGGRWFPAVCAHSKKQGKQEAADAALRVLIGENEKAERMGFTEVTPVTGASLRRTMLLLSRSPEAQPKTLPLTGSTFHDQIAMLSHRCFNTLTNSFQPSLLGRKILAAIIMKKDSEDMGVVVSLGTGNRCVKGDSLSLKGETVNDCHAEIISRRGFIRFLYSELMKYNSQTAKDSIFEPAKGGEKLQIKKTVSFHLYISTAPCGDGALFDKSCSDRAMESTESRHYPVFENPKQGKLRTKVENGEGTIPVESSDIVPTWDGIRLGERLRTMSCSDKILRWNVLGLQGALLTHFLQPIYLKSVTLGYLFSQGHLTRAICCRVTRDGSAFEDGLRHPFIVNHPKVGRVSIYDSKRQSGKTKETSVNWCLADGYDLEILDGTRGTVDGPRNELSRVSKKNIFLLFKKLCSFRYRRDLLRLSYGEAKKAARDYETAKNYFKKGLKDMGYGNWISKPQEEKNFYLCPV

[3] = target: cysteines in MDA-MB-231 and Ramos cells (Homo sapiens, UniProt Q14790); conditions: 200 μM, insitu
cysteines in MDA-MB-231 and Ramos cells (Homo sapiens, UniProt Q14790), sequence (Q14790 217-479): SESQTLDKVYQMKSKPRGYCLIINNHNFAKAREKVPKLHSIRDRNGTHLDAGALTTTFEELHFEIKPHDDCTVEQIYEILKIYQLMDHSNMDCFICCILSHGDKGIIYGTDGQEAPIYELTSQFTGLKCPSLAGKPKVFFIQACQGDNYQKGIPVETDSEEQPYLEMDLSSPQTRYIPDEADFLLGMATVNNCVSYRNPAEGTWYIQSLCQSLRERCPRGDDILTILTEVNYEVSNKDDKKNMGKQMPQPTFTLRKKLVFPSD

[4] = target: T2, cysteines in MDA-MB-231 and Ramos cells (Homo sapiens, UniProt Q8NFH5)
T2 sequence (Q8NFH5 1-326): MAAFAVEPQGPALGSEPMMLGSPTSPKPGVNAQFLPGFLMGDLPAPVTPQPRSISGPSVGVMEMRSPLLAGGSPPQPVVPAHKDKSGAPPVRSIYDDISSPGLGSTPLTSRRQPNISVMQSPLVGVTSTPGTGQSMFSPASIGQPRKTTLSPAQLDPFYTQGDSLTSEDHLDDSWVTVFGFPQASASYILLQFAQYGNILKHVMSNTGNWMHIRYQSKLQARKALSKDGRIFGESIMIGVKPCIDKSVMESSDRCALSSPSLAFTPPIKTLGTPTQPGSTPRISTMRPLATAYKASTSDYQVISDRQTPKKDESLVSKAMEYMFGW

[5] = target: T3, cysteines in MDA-MB-231 and Ramos cells (Homo sapiens, UniProt Q9NRW3); conditions: 200 μM, insitu, 231
T3 sequence (Q9NRW3 1-190): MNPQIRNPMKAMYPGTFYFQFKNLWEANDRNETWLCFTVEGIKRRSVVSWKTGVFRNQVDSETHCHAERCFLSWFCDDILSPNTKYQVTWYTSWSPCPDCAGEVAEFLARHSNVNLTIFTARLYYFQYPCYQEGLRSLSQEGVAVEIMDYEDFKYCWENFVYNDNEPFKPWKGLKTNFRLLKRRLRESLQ

[6] = target: T4, cysteines in MDA-MB-231 and Ramos cells (Homo sapiens, UniProt Q9NWA0); conditions: 200 μM, insitu, 231
T4 sequence (Q9NWA0 1-146): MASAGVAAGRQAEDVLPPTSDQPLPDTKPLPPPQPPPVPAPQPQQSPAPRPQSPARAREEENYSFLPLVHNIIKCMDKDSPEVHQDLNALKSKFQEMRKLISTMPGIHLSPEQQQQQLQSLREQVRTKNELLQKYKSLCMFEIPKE

[7] = target: T5, cysteines in MDA-MB-231 and Ramos cells (Homo sapiens, UniProt Q9Y5Y2)
T5 sequence (Q9Y5Y2 1-271): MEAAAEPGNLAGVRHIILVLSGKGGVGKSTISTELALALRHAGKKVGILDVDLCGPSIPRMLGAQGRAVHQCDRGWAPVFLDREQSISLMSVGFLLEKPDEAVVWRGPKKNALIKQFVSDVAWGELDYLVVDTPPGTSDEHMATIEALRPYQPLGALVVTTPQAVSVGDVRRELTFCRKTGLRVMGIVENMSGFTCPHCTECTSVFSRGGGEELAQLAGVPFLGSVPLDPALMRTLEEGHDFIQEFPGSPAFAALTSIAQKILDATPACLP

[8] = target: cysteines in MDA-MB-231 and Ramos cells (Homo sapiens, UniProt P45984)
cysteines in MDA-MB-231 and Ramos cells (Homo sapiens, UniProt P45984), sequence (P45984 whole entry): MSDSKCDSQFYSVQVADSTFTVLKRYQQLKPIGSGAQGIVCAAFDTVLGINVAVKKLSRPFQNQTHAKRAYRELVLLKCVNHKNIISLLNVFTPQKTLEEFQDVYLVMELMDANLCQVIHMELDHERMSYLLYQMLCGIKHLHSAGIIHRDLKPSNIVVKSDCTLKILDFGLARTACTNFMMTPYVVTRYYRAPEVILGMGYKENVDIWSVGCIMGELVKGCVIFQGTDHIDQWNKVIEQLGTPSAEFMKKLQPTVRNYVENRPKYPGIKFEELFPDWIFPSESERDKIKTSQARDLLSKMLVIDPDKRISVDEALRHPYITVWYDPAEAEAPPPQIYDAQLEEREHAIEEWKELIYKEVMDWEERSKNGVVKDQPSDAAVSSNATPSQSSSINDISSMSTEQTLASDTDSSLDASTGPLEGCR

[9] = target: T6, cysteines in MDA-MB-231 and Ramos cells (Homo sapiens, UniProt Q15013); conditions: for isoTOP-ABPP ratio Q15013_C124: 200 μM, insitu, 231
T6 sequence (Q15013 1-274): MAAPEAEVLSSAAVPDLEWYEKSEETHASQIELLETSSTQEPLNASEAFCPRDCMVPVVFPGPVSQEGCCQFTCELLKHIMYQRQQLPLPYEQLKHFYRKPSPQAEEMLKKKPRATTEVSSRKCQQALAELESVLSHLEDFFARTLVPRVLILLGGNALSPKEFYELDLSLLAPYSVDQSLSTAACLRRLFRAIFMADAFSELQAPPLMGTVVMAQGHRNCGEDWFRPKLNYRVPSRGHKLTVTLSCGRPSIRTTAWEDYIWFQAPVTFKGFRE

cysteines in MDA-MB-231 and Ramos cells (Homo sapiens, UniProt P04818), sequence (P04818 whole entry): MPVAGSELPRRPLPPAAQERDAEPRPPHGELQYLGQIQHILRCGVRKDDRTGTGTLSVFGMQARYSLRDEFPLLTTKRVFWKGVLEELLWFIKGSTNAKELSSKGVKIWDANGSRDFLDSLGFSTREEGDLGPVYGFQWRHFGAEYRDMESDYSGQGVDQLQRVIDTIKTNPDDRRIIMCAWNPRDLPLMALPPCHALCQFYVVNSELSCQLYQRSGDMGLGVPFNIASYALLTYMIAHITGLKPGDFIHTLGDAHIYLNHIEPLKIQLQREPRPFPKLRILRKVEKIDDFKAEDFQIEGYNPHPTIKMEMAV

SMILES: COc1ccc2c(c1)CCCN2C(=O)CCl [compound 2]
isoTOP-ABPP reactivity P04818_C199 TYMS [1]: 20.0
isoTOP-ABPP reactivity P55265_C1224 ADAR [2]: 9.1
isoTOP-ABPP reactivity Q14790_C360 CASP8 [3]; 231: 20.0
isoTOP-ABPP reactivity Q8NFH5_C255 NUP35 ([4]; 200 μM, insitu, 231): 5.1
isoTOP-ABPP reactivity Q9NRW3_C130 APOBEC3C [5]: 20.0
isoTOP-ABPP reactivity Q9NWA0_0139 MED9 [6]: 4.3
isoTOP-ABPP reactivity Q9Y5Y2_C72 NUBP2 ([7]; 200 μM, insitu, 231): 5.3

SMILES: O=C(CCl)NC(=O)NC12CC3CC(CC(C3)C1)C2 [compound 12]
isoTOP-ABPP ratio P45984_C177 ([8]; 200 μM, insitu, 231): 2.1
isoTOP-ABPP ratio Q8NFH5_C255 ([4]; 200 μM, insitu, 231): 12.4
isoTOP-ABPP ratio, cysteine Q9NWA0_C139 [6]: 20.0

SMILES: O=C(CCl)N1CCN(S(=O)(=O)c2ccccc2F)CC1 [compound 10]
isoTOP-ABPP ratio, cysteine P04818_C199 [1]: 1.5
isoTOP-ABPP ratio P45984_C177 ([8]; 200 μM, insitu, 231): 20.0
isoTOP-ABPP ratio, cysteine P55265_C1224 [2]: 10.7
isoTOP-ABPP ratio Q14790_C360 ([3]; ramos): 5.8
isoTOP-ABPP ratio Q8NFH5_C255 ([4]; 200 μM, insitu, 231): 3.5
isoTOP-ABPP ratio, cysteine Q9NWA0_C139 [6]: 2.9
isoTOP-ABPP ratio, cysteine Q9Y5Y2_C72 ([7]; 200 μM, insitu, 231): 1.3

SMILES: Cn1cc(S(=O)(=O)N2CCOCC2)cc1C(=O)NC(=O)CCl [compound 11]
isoTOP-ABPP ratio P45984_C177 ([8]; 100 μM in situ 231): 0.9
isoTOP-ABPP ratio, cysteine Q15013_C124 ([9]; 100 μM in situ 231): 1.0
isoTOP-ABPP ratio Q8NFH5_C255 ([4]; 100 μM in situ 231): 1.3
isoTOP-ABPP ratio, cysteine Q9Y5Y2_C72 ([7]; 100 μM in situ 231): 0.5

Further lines, results first:

isoTOP-ABPP ratio P04818_C199 [1]: 0.5
isoTOP-ABPP ratio P45984_C177 ([8]; 200 μM, insitu, 231): 0.5
isoTOP-ABPP ratio P55265_C1224 [2]: 1.4
isoTOP-ABPP ratio Q14790_C360 [3]; 231: 0.4
isoTOP-ABPP ratio Q15013_C124 [9]: 1.0
isoTOP-ABPP ratio Q9NRW3_C130 [5]: 1.3
isoTOP-ABPP ratio Q9NWA0_C139 [6]: 1.3
SMILES: CC(C)CCOCCNC(=O)CCl [compound 27]

isoTOP-ABPP ratio, cysteine P55265_C1224 [2]: 2.2
isoTOP-ABPP ratio Q14790_C360 [3]; 231: 0.9
isoTOP-ABPP ratio Q8NFH5_C255 ([4]; 200 μM, insitu, 231): 1.8
isoTOP-ABPP ratio, cysteine Q9NRW3_C130 [5]: 1.3
isoTOP-ABPP ratio, cysteine Q9NWA0_C139 [6]: 1.5
SMILES: O=C(CCl)NC12CC3CC(CC(C3)C1)C2 [compound 21]

isoTOP-ABPP ratio P04818_C199 [1]: 0.7
isoTOP-ABPP ratio P45984_C177 ([8]; 200 μM, insitu, 231): 0.5
isoTOP-ABPP ratio Q14790_C360 [3]; 231: 0.5
isoTOP-ABPP ratio Q8NFH5_C255 ([4]; 200 μM, insitu, 231): 0.8
isoTOP-ABPP ratio Q9NRW3_C130 [5]: 0.9
isoTOP-ABPP ratio Q9NWA0_C139 [6]: 0.8
SMILES: Cc1ccc(C=C(C#N)C(=O)NCCN2CCOCC2)cc1 [compound 41]

isoTOP-ABPP ratio Q15013_C124 [9]: 1.0
SMILES: COc1ccccc1OCCNC(=O)CCl [compound 28]
